Laboratory results reported in patent US12570684B2 (UNIVERSITY OF TENNESSEE RESEARCH FOUNDATION, priority 2020, dated 2026).
Entries after “also recorded” stand apart in the source; their conditions may differ.

Tests used:
[1] = molecular target: T1, DPAGT1 (Human) (Homo sapiens, UniProt Q9H3H5); test: DPAGT1 assay; type: biochemical
T1 construct: made in house; host or cells: Expi293 cells (suspension)
T1 sequence (Q9H3H5 1-408): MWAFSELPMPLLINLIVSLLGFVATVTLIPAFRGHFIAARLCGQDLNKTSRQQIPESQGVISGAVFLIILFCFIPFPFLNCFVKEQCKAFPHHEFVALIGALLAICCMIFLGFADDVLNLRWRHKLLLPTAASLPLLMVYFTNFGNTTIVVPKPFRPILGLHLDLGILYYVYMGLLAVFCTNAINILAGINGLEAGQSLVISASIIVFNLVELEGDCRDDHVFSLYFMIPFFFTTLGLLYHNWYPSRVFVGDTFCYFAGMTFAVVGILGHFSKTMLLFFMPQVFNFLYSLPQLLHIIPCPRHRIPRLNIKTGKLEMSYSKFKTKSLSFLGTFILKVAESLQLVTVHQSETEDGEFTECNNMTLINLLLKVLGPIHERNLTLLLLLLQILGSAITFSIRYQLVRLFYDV
Protocol: DPAGT1 expression and purification. DPAGT1 was expressed in suspended Expi293 cells for 36 h. The cells were lysed by drawing through a 26 g needle (10 times) and membrane protein was extracted using buffer containing 1% decyl f3-D-maltopyranoside detergent. DPAGT1 was purified using HA-agarose resin and a superdex 200 size exclusion column.

[2] = system: DLD-1; test: MTT cytotoxicity assay; type: cell-based; conditions: 72 h
Protocol: (§1) Cell lines. The human primary PDAC cell lines PANC-1 (ATCC CRL 1469); Capan-2 (ATCC HTB-80) and metastatic PDAC cell lines Capan-1 (ATCC HTB-79), AsPC-1 (ATCC CRL-1682), L1210 (ATCC CCL-219), KB (ATCC CCL-17), HeLa, SiHa (ATCC HTB-35), HCT-116 (ATCC CCL-247), DLD-1 (ATCC CCL221), hTERT-HPNE (ATCC CRL-4023), Vero (ATCC CCL-81) were purchased from the ATCC. The cell lines were cultured and maintained in the media as recommended by the supplier. The cell lines were regularly tested for mycoplasma contamination and authenticated. In addition to ATCC cell lines, Dr. Glazer's lab generated patient-derived PDAC cell line, PD002. PD002 Cells were maintained and cultured in DMEM medium supplemented with 20% FBS and 100 IU/mL penicillin and incubated at 37° C. with 5% CO2.
(§2) MTT cytotoxicity assay. To study the effect of treatment with DPAGT1 inhibitors on the growth and proliferation of cells, a fixed number of cells (5×10^4 cells/well, 196 μL) were plated in a 96 well plate. Into each well 5 μL of drug concentration was added. After 72 h of incubation with drugs at 37° C., 5% CO2, 10 μL of MTT solution (5 mg/mL in PBS) was added and incubated another 3 h at 37° C., 5% CO2. The medium was removed, and DMSO (200 μL/well) was added. Viability was assessed on the basis of cellular conversion of MTT into a purple formazan product. The absorbance of the colored formazan product was measured at 570 nm by BioTek Synergy HT Spectrophotometer.

[3] = system: HCT-116; test: MTT cytotoxicity assay; type: cell-based; conditions: 72 h
Protocol: as §1, §2

[4] = system: HPNE; test: MTT cytotoxicity assay; type: cell-based
Protocol: as §1, §2

[5] = system: KB; test: MTT cytotoxicity assay; type: cell-based; conditions: 72 h
Protocol: as §1, §2

[6] = system: L1210; test: MTT cytotoxicity assay; type: cell-based
Protocol: as §1, §2

[7] = system: PD002; test: MTT cytotoxicity assay; type: cell-based
Protocol: as §1, §2

[8] = system: SiHa; test: MTT cytotoxicity assay; type: cell-based; conditions: 72 h
Protocol: as §1, §2

[9] = system: Vero; test: MTT cytotoxicity assay; type: cell-based
Protocol: as §1, §2

[10] = system: cell lines in Table 2; test: MTT assays, summary over the cell lines in Table 2; type: cell-based
Protocol: as §1, §2

[11] = system: Myocobacterium tuberculosis H37Rv, Mycobacterium avium 2285, Mycobacterium smegmatis (ATCC607); test: Antimycobacterial activity (MIC); type: cell-based, Mycobacterium spp.; conditions: M. tuberculosis H37Rv, M. avium 2285, M. smegmatis (ATCC607)
[12] = system: PD002; test: Kinetic proliferation assay (IncuCyte); type: cell-based
Protocol: Kinetic Proliferation Assay. To study the effect of treatment with DPAGT1 inhibitors on the growth and proliferation of cells, a fixed number of cells (2×10^4) were plated in multiple wells of a 96 well plate, incubated for 24 h to let cells settle down. Then, CPPB (5) was added (0-50 μM). Images were obtained every 4 h using an IncuCyte Live-Cell Imaging System (Essen BioScience, Ann Arbor, MI). After 72 h, cell proliferation was quantified using the metric phase object confluence (POC), a measurement of the area of the field of view that is covered by cells, which is calculated by the integrated software.

[13] = system: HCT-116; test: Scratch (wound healing) assay; type: cell-based; conditions: scratch assays
Protocol: (§3) Scratch Assay. A confluent monolayer was formed in 24-well plates. The monolayer was scratched by a sterile 200 μL pipette tip and washed with PBS to remove cell debris. Complete medium with CPPB (5) (0, 0.05, 0.1, 0.2 μM) were added and scratched areas were photographed with microscope. The scratched cells were incubated at 37° C., 5% CO2. After 24 h, medium was removed and cells were stained with a 1:1 mixture of crystal violet and PBS for 5 min., washed with PBS twice, and photographed with microscope. Wound areas were measured and recovered areas were calculated.

[14] = system: PD002; test: Scratch (wound healing) assay; type: cell-based; conditions: 0.2 μM, 24 h; untreated PD002 63%
Protocol: as §3

[15] = system: SiHa; test: Scratch (wound healing) assay; type: cell-based; conditions: 0.2 μM
Protocol: as §3

[16] = system: Snail; test: Immunofluorescence assay using an anti-Snail antibody; type: cell-based
[17] = system: DPAGT1 gene; test: RT-qPCR analyses of DPAGT1 expression level; type: cell-based; conditions: PD002

(2S,3S,4S)-2-((1R)-2-Amino-1-((2S,5R)-5-(2,4-dioxo-3,4-dihydropyrimidin-1(2H)-yl)-4-hydroxy-3-methoxytetrahydrofuran-2-yl)-2-oxoethoxy)-3,4-dihydroxy-N-(4-(4-(4-(trifluoromethoxy)-phenyl)piperidin-1-yl)benzyl)-3,4-dihydro-2H-pyran-6-carboxamide [CPPB]
DPAGT1 inhibitory activity (in words) [1]: high nM range DPAGT1 inhibitors
IC50 [1]: 0.2 µM
DPAGT1 inhibitory strength relative to I-CPPB ([1]; CPPB vs. I-CPPB): three times stronger
DPAGT1 inhibitory activity relative to tunicamycin ([1]; CPPB vs. tunicamycin): ~7.5 times
IC50 [2]: 25 µM
IC50 [3]: 15 µM
IC50 ([4]; MTT, 72 h): > 50 µM
antiproliferative activity against HPNE ([4]; at 50 μM, normal pancreatic ductal cell): did not show antiproliferative activity
IC50 [5]: 35 µM
IC50 ([6]; MTT, 72 h): > 50 µM
antiproliferative activity against L1210 ([6]; at 50 μM): did not show antiproliferative activity
cell viability of PD002 (MTT reduction assay) ([7]; 50 μM): significantly decreased
IC50 ([7]; MTT, 72 h): 35 µM
IC50 [8]: 15 µM
IC50 ([9]; MTT, 72 h): > 50 µM
antiproliferative activity against Vero ([9]; at 50 μM, normal kidney cell): did not show antiproliferative activity
viability of all pancreatic cancers tested (MTT) ([10]; 20 μM concentration): remained viable
cytotoxicity against a series of cancer and healthy cell lines ([10]; at 10 μM or higher concentrations): not cytotoxic
MIC [11]: 6.25 to 12.5 µg/mL
phase area confluence of PD002 culture after 72 h ([12]; 50 μM, same as at time 0 h, control (PBS) ca. 70%): 10-13%
cell proliferation inhibited at time 72 h ([12]; 0.2-20 μM): ca. 20%
cell migration of HCT-116 [13]: not inhibited; also recorded: did not inhibit migration
wound-healing rate [14]: approximately 20%
migration of SiHa [15]: strongly inhibited migration
Snail expression in pancreatic cancer cells ([16]; PANC-1, AsPC-1, Capan-2, PD002): decreased by the treatment with CPPB in a concentration dependent manner; also recorded: decreased the Snail expression
Snail expression level in HCT-116 ([16]; between 0.05 and 2.0 μM): not noticeably changed
DPAGT1 gene expression [17]: without significantly decreasing
